The text below walks through data of ChEMBL document CHEMBL4715760, “Balancing potency, metabolic stability and permeability in pyrrolopyrimidine-based EGFR inhibitors” (Eur J Med Chem, 2016).

In experiment [1] the target is T1, Aurora kinase A (Homo sapiens) (UniProt O14965).
T1 sequence (whole entry): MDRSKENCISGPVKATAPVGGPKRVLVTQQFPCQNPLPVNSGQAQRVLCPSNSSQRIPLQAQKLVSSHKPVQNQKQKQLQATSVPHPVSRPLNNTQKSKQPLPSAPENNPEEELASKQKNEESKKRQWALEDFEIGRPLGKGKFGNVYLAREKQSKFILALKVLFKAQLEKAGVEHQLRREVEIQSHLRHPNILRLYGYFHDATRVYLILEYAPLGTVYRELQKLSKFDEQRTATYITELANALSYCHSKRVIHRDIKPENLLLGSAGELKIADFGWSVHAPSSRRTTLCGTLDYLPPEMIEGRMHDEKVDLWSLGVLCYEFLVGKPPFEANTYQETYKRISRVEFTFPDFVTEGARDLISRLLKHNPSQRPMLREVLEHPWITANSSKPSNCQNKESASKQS
In words: Inhibition of recombinant human full length His-tagged AURKA expressed in baculovirus expression system at 500 nM using Ser/Thr 01 as substrate incubated for 1 hr in presence of ATP at its Km concentration by Z'-LYTE assay relative to control.

For experiment [2], the target named is T2, Ephrin type-A receptor 1 (Homo sapiens) (UniProt P21709).
T2 sequence (whole entry): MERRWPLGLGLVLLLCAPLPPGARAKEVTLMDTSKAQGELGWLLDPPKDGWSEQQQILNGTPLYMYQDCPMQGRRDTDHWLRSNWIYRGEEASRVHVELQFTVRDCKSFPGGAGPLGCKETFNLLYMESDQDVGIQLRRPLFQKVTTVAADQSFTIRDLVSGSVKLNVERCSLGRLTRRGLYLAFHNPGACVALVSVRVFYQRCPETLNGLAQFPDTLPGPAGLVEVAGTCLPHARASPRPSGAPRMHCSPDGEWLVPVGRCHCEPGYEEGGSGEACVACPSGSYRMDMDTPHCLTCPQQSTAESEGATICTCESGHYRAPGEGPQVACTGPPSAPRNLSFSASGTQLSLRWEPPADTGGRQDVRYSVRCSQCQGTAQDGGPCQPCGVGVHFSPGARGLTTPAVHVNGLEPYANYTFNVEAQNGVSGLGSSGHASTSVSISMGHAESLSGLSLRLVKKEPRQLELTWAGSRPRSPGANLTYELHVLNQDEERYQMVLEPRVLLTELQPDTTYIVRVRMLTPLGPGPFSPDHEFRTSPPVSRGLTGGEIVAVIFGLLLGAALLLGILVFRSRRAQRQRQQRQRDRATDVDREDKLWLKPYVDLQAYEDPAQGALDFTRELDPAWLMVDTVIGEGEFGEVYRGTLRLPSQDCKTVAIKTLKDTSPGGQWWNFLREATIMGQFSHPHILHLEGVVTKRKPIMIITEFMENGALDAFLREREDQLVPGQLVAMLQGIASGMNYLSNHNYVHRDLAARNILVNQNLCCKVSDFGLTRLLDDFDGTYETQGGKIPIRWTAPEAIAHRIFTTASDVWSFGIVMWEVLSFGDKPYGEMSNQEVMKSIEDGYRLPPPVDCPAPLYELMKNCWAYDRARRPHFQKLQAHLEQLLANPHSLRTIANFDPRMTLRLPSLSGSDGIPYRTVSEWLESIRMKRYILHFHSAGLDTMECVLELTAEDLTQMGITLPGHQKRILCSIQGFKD
In words: Inhibition of recombinant human GST-tagged EPHA1 (568 to 976 residues) expressed in baculovirus expression system at 500 nM using Tyr 02 peptide as substrate incubated for 1 hr in presence of ATP at its Km concentration by Z'-LYTE assay relative to control.

The target of experiment [3] is Dual specificity mitogen-activated protein kinase kinase 1 (Homo sapiens) (UniProt Q02750). In words: Inhibition of recombinant full length human His-tagged MAP2K1 expressed in baculovirus expression system at 500 nM using Ser/Thr 03 as substrate incubated for 1 hr in presence of ATP at its Km concentration by Z'-LYTE assay relative to control.
Experiment [4] deals with Epidermal growth factor receptor (Homo sapiens, UniProt P00533). In words: Inhibition of human EGFR using poly[Glu:Tyr] (4:1) as substrate in presence of [gamma33P]ATP by radiometric HotSpot assay.
In experiment [5] the target is Proto-oncogene tyrosine-protein kinase receptor Ret (Homo sapiens) (UniProt P07949). Briefly: Inhibition of recombinant human GST-tagged RET (658 to 1114 residues) expressed in baculovirus expression system at 500 nM using Tyr 02 as substrate incubated for 1 hr in presence of ATP at its Km concentration by Z'-LYTE assay relative to control.
Experiment [6] concerns the target Receptor tyrosine-protein kinase erbB-2 (Homo sapiens) (UniProt P04626). In words: Inhibition of recombinant human His-tagged ERBB2 (676 to 1255 residues) expressed in baculovirus expression system at 500 nM using Tyr 06 peptide as substrate incubated for 1 hr in presence of ATP at its Km concentration by Z'-LYTE assay relative to control.
In experiment [7] the target is Tyrosine-protein kinase Lck (Homo sapiens) (UniProt P06239). The note with it: dose 500.0 nM, time 1.0 hrs.
Experiment [8] addresses T3, Testis-specific serine/threonine-protein kinase 2 (Homo sapiens) (UniProt Q96PF2).
T3 sequence (whole entry): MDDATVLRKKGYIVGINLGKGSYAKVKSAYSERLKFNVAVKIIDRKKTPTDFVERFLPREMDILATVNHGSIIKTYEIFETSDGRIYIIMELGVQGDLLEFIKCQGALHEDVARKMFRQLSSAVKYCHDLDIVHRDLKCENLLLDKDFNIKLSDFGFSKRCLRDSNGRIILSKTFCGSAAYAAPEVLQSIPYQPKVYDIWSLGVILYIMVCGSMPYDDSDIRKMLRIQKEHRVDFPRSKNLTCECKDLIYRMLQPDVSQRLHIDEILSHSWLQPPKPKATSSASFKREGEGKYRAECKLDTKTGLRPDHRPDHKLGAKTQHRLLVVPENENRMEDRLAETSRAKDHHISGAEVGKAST
In words: Inhibition of recombinant full length human His-tagged STK22B expressed in baculovirus expression system at 500 nM using Ser/Thr 04 as substrate incubated for 1 hr in presence of ATP at its Km concentration by Z'-LYTE assay relative to control.

For experiment [9], the target named is Ephrin type-A receptor 2 (Homo sapiens) (UniProt P29317). Briefly: Inhibition of recombinant human GST-tagged EPHA2 cytoplasmic domain expressed in baculovirus expression system at 500 nM using Tyr 01 peptide as substrate incubated for 1 hr in presence of ATP at its Km concentration by Z'-LYTE assay relative to control.
Experiment [10] deals with Fibroblast growth factor receptor 1 (Homo sapiens) (UniProt P11362). Briefly: Inhibition of recombinant human His-tagged FGFR1 (308 to 731 residues) expressed in baculovirus expression system at 500 nM using Tyr 04 peptide as substrate incubated for 1 hr in presence of ATP at its Km concentration by Z'-LYTE assay relative to control.

SMILES strings stand for the structures.

Epidermal growth factor receptor, sequence (P00533 whole entry, the tested form may be a part): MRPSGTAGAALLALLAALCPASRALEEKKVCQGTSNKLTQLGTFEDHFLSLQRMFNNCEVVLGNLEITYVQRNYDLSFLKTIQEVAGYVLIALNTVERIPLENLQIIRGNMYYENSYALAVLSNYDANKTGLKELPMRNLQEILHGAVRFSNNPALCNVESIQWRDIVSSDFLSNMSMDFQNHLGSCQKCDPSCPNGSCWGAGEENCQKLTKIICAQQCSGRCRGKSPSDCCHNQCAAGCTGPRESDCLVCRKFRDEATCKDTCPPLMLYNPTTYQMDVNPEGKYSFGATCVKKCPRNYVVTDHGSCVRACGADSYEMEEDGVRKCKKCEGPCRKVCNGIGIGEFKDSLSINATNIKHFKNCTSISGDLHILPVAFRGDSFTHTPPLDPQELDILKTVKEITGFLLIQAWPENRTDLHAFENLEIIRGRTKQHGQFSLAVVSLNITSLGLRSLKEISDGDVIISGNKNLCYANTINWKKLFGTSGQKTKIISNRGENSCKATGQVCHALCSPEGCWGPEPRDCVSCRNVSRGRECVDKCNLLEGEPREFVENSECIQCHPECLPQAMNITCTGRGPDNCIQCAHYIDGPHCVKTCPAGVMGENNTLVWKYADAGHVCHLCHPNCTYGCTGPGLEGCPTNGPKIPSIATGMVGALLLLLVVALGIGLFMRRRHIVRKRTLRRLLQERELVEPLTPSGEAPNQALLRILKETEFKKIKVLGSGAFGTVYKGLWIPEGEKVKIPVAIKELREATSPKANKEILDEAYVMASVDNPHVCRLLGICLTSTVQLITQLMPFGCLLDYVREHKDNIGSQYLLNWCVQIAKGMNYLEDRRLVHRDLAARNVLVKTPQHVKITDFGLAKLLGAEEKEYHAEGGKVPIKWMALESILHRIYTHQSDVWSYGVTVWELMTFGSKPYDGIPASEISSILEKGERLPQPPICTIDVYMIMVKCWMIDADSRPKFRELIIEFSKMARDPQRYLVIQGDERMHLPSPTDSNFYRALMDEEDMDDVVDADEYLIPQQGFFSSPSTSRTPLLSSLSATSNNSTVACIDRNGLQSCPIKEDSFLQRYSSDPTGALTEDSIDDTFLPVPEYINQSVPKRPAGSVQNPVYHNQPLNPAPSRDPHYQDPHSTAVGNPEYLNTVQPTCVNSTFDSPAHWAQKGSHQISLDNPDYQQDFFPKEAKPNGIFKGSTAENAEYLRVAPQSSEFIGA
Dual specificity mitogen-activated protein kinase kinase 1 (Homo sapiens), sequence (Q02750 whole entry): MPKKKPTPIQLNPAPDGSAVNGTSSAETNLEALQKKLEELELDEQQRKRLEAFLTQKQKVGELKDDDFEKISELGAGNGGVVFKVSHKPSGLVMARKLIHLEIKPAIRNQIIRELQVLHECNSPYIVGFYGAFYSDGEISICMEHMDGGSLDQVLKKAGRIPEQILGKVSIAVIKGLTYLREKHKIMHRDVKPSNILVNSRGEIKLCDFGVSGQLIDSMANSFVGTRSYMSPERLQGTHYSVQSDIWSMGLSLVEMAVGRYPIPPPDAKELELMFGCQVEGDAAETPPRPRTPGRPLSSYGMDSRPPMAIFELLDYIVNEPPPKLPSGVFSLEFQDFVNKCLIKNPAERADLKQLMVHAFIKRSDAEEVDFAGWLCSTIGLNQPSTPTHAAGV
Ephrin type-A receptor 2 (Homo sapiens), sequence (P29317 whole entry, the tested form may be a part): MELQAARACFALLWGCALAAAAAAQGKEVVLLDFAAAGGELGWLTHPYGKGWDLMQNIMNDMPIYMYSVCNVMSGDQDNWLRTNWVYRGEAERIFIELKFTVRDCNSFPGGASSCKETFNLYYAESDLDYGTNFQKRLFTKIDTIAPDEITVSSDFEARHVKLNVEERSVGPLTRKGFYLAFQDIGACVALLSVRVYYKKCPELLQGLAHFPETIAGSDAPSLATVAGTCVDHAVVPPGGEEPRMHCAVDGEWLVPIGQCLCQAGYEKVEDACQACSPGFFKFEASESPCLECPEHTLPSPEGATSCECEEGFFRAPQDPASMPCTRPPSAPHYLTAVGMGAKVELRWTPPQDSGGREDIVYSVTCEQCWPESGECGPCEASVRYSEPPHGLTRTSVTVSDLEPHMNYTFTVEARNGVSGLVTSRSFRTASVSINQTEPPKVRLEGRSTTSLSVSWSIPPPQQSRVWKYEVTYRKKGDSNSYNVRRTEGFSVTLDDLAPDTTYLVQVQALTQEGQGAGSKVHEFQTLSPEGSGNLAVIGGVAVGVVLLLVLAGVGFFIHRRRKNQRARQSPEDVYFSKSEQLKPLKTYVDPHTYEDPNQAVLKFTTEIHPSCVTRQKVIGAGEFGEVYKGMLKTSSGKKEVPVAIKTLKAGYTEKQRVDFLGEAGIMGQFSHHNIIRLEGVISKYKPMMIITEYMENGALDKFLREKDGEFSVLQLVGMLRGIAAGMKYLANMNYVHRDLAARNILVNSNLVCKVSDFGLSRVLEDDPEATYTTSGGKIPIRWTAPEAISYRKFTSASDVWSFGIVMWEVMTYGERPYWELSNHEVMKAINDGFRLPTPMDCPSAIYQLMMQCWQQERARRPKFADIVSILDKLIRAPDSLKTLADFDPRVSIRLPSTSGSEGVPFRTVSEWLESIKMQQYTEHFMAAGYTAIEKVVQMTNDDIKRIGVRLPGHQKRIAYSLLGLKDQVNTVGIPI
Receptor tyrosine-protein kinase erbB-2 (Homo sapiens), sequence (P04626 whole entry, the tested form may be a part): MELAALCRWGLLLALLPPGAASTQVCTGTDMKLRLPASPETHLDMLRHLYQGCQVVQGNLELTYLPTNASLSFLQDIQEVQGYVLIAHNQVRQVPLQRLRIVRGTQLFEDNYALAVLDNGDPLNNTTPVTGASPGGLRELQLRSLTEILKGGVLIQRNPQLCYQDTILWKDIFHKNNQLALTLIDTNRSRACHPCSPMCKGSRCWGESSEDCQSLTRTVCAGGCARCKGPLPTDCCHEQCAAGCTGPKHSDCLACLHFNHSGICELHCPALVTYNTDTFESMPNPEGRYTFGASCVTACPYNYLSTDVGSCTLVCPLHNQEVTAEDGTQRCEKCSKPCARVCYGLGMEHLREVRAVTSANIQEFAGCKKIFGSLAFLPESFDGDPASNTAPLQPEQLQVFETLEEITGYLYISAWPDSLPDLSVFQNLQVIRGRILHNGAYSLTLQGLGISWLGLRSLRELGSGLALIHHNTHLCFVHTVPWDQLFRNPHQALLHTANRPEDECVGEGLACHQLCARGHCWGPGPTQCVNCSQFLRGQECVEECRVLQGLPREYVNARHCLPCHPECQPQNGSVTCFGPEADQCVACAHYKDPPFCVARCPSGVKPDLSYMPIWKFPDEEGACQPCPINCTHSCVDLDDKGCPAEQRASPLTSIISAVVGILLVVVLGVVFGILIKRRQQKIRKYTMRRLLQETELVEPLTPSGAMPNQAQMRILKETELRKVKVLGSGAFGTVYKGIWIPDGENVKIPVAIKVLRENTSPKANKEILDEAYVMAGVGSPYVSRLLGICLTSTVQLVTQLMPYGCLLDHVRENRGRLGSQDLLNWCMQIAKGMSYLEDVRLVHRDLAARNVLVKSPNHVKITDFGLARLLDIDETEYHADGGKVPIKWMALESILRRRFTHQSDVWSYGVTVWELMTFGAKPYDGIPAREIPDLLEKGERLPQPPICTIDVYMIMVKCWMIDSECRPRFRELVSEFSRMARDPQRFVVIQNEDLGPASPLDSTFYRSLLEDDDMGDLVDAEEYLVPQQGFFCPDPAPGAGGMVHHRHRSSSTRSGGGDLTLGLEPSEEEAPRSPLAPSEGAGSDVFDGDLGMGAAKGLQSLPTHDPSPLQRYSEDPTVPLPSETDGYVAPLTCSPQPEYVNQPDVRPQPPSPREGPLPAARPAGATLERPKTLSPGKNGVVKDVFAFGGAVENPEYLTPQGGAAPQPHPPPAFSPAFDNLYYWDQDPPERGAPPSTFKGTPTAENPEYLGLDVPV
Tyrosine-protein kinase Lck (Homo sapiens), sequence (P06239 2-509 limits assumed): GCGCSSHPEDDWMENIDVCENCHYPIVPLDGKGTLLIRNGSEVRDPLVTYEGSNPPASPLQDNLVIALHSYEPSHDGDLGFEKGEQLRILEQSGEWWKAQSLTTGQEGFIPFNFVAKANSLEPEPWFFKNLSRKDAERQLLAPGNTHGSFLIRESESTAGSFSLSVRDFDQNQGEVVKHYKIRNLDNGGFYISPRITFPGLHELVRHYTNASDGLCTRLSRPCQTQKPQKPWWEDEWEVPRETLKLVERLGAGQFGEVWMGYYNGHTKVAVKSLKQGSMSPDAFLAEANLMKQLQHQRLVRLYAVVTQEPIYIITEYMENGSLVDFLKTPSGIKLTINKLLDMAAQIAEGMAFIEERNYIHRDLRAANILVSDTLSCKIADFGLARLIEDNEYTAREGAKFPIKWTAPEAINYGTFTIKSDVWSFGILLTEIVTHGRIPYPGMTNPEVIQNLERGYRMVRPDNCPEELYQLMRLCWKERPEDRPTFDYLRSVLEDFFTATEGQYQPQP

With `CCOc1ccccc1-c1cc2c(N[C@H](CO)c3ccccc3)ncnc2[nH]1`, the inhibition (in general, the relative decrease from the control value, in per cent) in [1] was -2%; in experiment [2], 13%; in experiment [3], 10%; in experiment [5] it was 9%; in experiment [6] it was 35%; in [7], 26%. In addition, the figures for the inhibition in [8], in experiment [9] and in [10] were 2%, 21% and 3%, respectively. For the same compound, the concentration for half-maximal inhibition (IC50) (usually the concentration at which inhibition is half-maximal) in experiment [4] was determined as 0.2 nM.
In the case of `COc1ccccc1-c1cc2c(N[C@H](CO)c3ccccc3)ncnc2[nH]1`, the inhibition was 9% in [1]; 15% in [2]; -4% in [3]; 15% in experiment [5]; 53% in experiment [6]; 17% in experiment [7]. Further, the inhibition in [8] was -2%; in experiment [9], 7%; in experiment [10] it was 6%. Besides, in experiment [4], the IC50 turned out to be 0.4 nM.
Take `OC[C@@H](Nc1ncnc2[nH]c(-c3ccccc3)cc12)c1ccccc1`: the inhibition in experiment [1] is 19%; in [2], 19%; in experiment [3] it was -8%; in experiment [5] it was 14%; in experiment [6] it was 53%; in experiment [7] it was 13%. Also, the inhibition in [8] was -3%; in experiment [9] it was 16%; in experiment [10], 16%. In addition, the IC50 in experiment [4] was found to be 0.8 nM.
As for `C#Cc1cccc(Nc2ncnc3cc(OCCOC)c(OCCOC)cc23)c1` [ERLOTINIB], the inhibition in [1] is 20%; in experiment [6], 52%; in experiment [9] it was 11%; in experiment [10] it was -4%.
Turning to `CN(C)CCNCc1ccc(-c2cc3c(N[C@H](CO)c4ccccc4)ncnc3[nH]2)cc1F`, the inhibition in experiment [1] came out at 3%; in experiment [2], 48%; in experiment [3], 13%; in [5], 25%; in experiment [6] it was 58%; in [7], 81%. Further, the values for the inhibition in experiment [8], in experiment [9] and in experiment [10] were -6%, 54% and 9%, respectively. For the same compound, the IC50 in experiment [4] stood at 0.1 nM.
Consider `OCC[C@@H](Nc1ncnc2[nH]c(-c3ccccc3)cc12)c1ccccc1`, for which the inhibition in experiment [1] was -3%; in [2], 13%; in experiment [3] it was 5%; in experiment [5], 2%; in experiment [6], 36%; in experiment [7], 29%. Moreover, the inhibition in experiment [8] was found to be 7%; in experiment [9], 23%; in [10], 0%. Moreover, in experiment [4], the IC50 was 0.5 nM.
